Experimental data published in ChEMBL document CHEMBL1201862, “PubChem BioAssay data set” (2004).
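Protocol summary: plate cells (96-well), add compound at 5 concentrations, incubate 48 h, interpolate endpoints linearly. GI50 = concentration required for 50% inhibition of growth.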 Calls of active or inactive are those of the source. Cut-off read from the data, not from the text of the source: active = GI50 up to about 1.1 µM and inactive = higher.

How the values were obtained:
Assay in all cases: DTP human tumour cell line panel, 48 h
HT-29 = system: HT-29
T47D = system: T47D
K562 = system: K562
IGROV-1 = system: IGROV-1
DU-145 = system: DU-145
HCT-116 = system: HCT-116
Hs-578T = system: Hs-578T
ACHN = system: ACHN
SF-268 = system: SF-268
RXF 393 = system: RXF 393
UACC-257 = system: UACC-257
SK-MEL-2 = system: SK-MEL-2
MDA-MB-231 = system: MDA-MB-231
SW-620 = system: SW-620
MDA-MB-435 = system: MDA-MB-435
SNB-75 = system: SNB-75
SNB-19 = system: SNB-19
NCI/ADR-RES = system: NCI/ADR-RES
LOX IMVI = system: LOX IMVI
BT-549 = system: BT-549

Measured: GI50

CC(C)Cc1cc2c(cc1O)CCC1C2CC[C@@]2(C)C1CC[C@@H]2O (stereo partly specified)
inactive: HT-29 8.02 µM | T47D 5.04 µM | K562 3.83 µM | IGROV-1 15.1 µM | DU-145 9.2 µM | HCT-116 6.05 µM | Hs-578T 6.19 µM | ACHN 6.95 µM | SF-268 10.8 µM | RXF 393 4.35 µM | UACC-257 14.3 µM | SK-MEL-2 6.71 µM | MDA-MB-231 7.59 µM | SW-620 8.65 µM | MDA-MB-435 11.6 µM | SNB-75 5.68 µM | SNB-19 7.46 µM | NCI/ADR-RES 6.14 µM | LOX IMVI 6.22 µM | BT-549 2.96 µM

COc1cc(/C=C/C(=O)N[C@@H]2C(=O)N3[C@@H]2SC(C)(C)[C@@H]3C(=O)O)cc(OC)c1OC
inactive: HT-29 > 100 µM | T47D > 100 µM | K562 > 100 µM | DU-145 > 100 µM | HCT-116 > 100 µM | Hs-578T > 100 µM | ACHN > 100 µM | SF-268 > 100 µM | RXF 393 > 100 µM | UACC-257 > 100 µM | SK-MEL-2 > 100 µM | MDA-MB-231 > 100 µM | SW-620 > 100 µM | MDA-MB-435 > 100 µM | SNB-75 > 100 µM | SNB-19 > 100 µM | NCI/ADR-RES > 100 µM | LOX IMVI > 100 µM | BT-549 > 100 µM

Nc1[nH]nc2ccccc12
inactive: HT-29 > 100 µM | T47D > 100 µM | K562 28.5 µM | IGROV-1 > 100 µM | DU-145 > 100 µM | HCT-116 > 100 µM | Hs-578T > 100 µM | ACHN > 100 µM | SF-268 > 100 µM | RXF 393 > 100 µM | UACC-257 > 100 µM | SK-MEL-2 > 100 µM | MDA-MB-231 > 100 µM | SW-620 > 100 µM | MDA-MB-435 > 100 µM | SNB-75 > 100 µM | SNB-19 > 100 µM | NCI/ADR-RES > 100 µM | LOX IMVI > 100 µM | BT-549 > 100 µM

NC(Cc1cc(I)c(Oc2ccc(O)c(I)c2)c(I)c1)C(=O)O (stereo unspecified) [RATHYRONINE]
inactive: HT-29 > 100 µM | T47D 81.7 µM | IGROV-1 73.1 µM | DU-145 > 100 µM | HCT-116 > 100 µM | Hs-578T 37.9 µM | ACHN > 100 µM | SF-268 42.6 µM | RXF 393 > 100 µM | UACC-257 > 100 µM | SK-MEL-2 19.9 µM | MDA-MB-231 29.3 µM | SW-620 > 100 µM | MDA-MB-435 > 100 µM | SNB-75 54.3 µM | SNB-19 80.9 µM | NCI/ADR-RES > 100 µM | LOX IMVI 34.8 µM | BT-549 61.1 µM

O=C(CN1CCCCC1)CC(O)(C(F)(F)F)C(F)(F)F
inactive: HT-29 > 100 µM | T47D > 100 µM | K562 > 100 µM | IGROV-1 > 100 µM | DU-145 > 100 µM | HCT-116 > 100 µM | Hs-578T 95.9 µM | ACHN > 100 µM | RXF 393 > 100 µM | UACC-257 > 100 µM | SK-MEL-2 > 100 µM | MDA-MB-231 > 100 µM | SW-620 > 100 µM | MDA-MB-435 > 100 µM | SNB-75 20.5 µM | SNB-19 > 100 µM | NCI/ADR-RES > 100 µM | LOX IMVI > 100 µM | BT-549 > 100 µM

COC(=O)c1cn(CCCCO)nn1
inactive: HT-29 > 100 µM | T47D 3.65 µM | IGROV-1 > 100 µM | DU-145 > 100 µM | HCT-116 > 100 µM | Hs-578T > 100 µM | ACHN > 100 µM | SF-268 > 100 µM | RXF 393 > 100 µM | UACC-257 > 100 µM | SK-MEL-2 > 100 µM | MDA-MB-231 > 100 µM | SW-620 > 100 µM | MDA-MB-435 > 100 µM | SNB-75 > 100 µM | SNB-19 > 100 µM | NCI/ADR-RES > 100 µM | LOX IMVI > 100 µM | BT-549 > 100 µM

Nc1nc(S)c2c(N)n[nH]c2c1C(=O)Nc1ccccc1
inactive: HT-29 > 100 µM | T47D > 100 µM | K562 > 100 µM | IGROV-1 > 100 µM | DU-145 > 100 µM | HCT-116 > 100 µM | Hs-578T > 100 µM | SF-268 > 100 µM | RXF 393 > 100 µM | UACC-257 > 100 µM | SK-MEL-2 > 100 µM | MDA-MB-231 > 100 µM | SW-620 > 100 µM | MDA-MB-435 42 µM | SNB-75 > 100 µM | SNB-19 > 100 µM | NCI/ADR-RES > 100 µM | LOX IMVI > 100 µM | BT-549 > 100 µM

CC[C@@H]1CC[C@@H]2[C@H](CC[C@]3(C)[C@@H](O[N+](=O)[O-])CC[C@@H]23)[C@H]1C(C)=O
inactive: HT-29 13.1 µM | T47D 12.9 µM | K562 34.8 µM | IGROV-1 34.7 µM | DU-145 45.7 µM | HCT-116 23.7 µM | Hs-578T 44.7 µM | ACHN 28.4 µM | SF-268 24.5 µM | RXF 393 28.2 µM | UACC-257 20 µM | MDA-MB-231 11.8 µM | SW-620 40.4 µM | MDA-MB-435 32.8 µM | SNB-75 27.6 µM | SNB-19 56.5 µM | NCI/ADR-RES 21.8 µM | LOX IMVI 20 µM | BT-549 50 µM

CC1CC(C#N)=C2NCCN2C1=O (stereo unspecified)
inactive: HT-29 > 100 µM | T47D > 100 µM | K562 > 100 µM | IGROV-1 > 100 µM | DU-145 > 100 µM | Hs-578T > 100 µM | SF-268 > 100 µM | RXF 393 > 100 µM | UACC-257 78 µM | SK-MEL-2 > 100 µM | MDA-MB-231 > 100 µM | SW-620 31.9 µM | MDA-MB-435 18.3 µM | SNB-75 > 100 µM | SNB-19 > 100 µM | NCI/ADR-RES > 100 µM | LOX IMVI 30.8 µM | BT-549 > 100 µM

Nc1ccc(Oc2ccc(C34CC5C6CC7(c8ccc(Oc9ccc(N)cc9)cc8)CC5C(C3)C(C7)C6C4)cc2)cc1
inactive: HT-29 > 100 µM | T47D > 100 µM | K562 > 100 µM | IGROV-1 > 100 µM | DU-145 > 100 µM | HCT-116 > 100 µM | Hs-578T > 100 µM | ACHN > 100 µM | SF-268 > 100 µM | RXF 393 > 100 µM | UACC-257 > 100 µM | SK-MEL-2 > 100 µM | MDA-MB-231 > 100 µM | SW-620 > 100 µM | MDA-MB-435 > 100 µM | SNB-19 > 100 µM | NCI/ADR-RES > 100 µM | LOX IMVI > 100 µM | BT-549 > 100 µM
